Assay results reported in ChEMBL document CHEMBL5137060, “Glioblastoma: Current Status, Emerging Targets, and Recent Advances” (J Med Chem, 2022).

How the values were obtained:
C6 = test: Anticancer activity against rat C6 cells; assay type: functional, cell-based
[1] = Cytotoxicity against human glial cells; assay type: toxicity, cell-based, Glial cell
U-251 [2] = test: Cytotoxicity against human U251N cells incubated for 24 to 72 hrs by fluorescence microscopic analysis; assay type: functional, cell-based
U-251 [3] = test: Inhibition of cell migration of human U251N cells relative to control; assay type: functional
[4] = Antiproliferative activity against human U-87 MG cells assessed as inhibitionof cell growth incubated for 24 to 72 hrs by MTT assay; assay type: functional, cell-based, U-87MG ATCC
Hs 683 = test: Growth inhibition of human Hs 683 cells; assay type: functional
[5] = Growth inhibition of human U373 cells; assay type: functional; conditions: U373 MG
T98G [6] = test: Cytotoxicity against human T98G cells; assay type: functional
U-87 MG = test: Cytotoxicity against human U87 cells; assay type: functional, U-87MG ATCC
[7] = Antiproliferative activity against human U-343MG cells assessed as inhibition of cell growth incubated for 72 hrs by MTS assay; assay type: functional, cell-based
[8] = Antiproliferative activity against human ANGM-CSS cells assessed as inhibition of cell growth incubated for 72 hrs by MTS assay; assay type: functional, cell-based
[9] = Water solubility of the compound; assay type: physicochemical
[10] = Cytotoxicity against patient derived glioblastoma T78 cells; assay type: functional; conditions: Homo sapiens, read-out: LC50 (the source's name)
[11] = Cytotoxicity against patient derived glioblastoma T86 cells; assay type: functional; conditions: Homo sapiens, read-out: LC50 (the source's name)
[12] = Inhibition of cell migration of patient derived glioblastoma T86 spheroid cell culture treated at 10 uM for 24 hrs by propidium iodide staining method relative to control; assay type: functional; conditions: Homo sapiens
[13] = Inhibition of cell migration of patient derived glioblastoma T78 spheroid cell culture treated at 10 uM for 24 hrs by propidium iodide staining method relative to control; assay type: functional; conditions: Homo sapiens
[14] = Cytotoxicity against patient derived glioblastoma T111 cells; assay type: functional; conditions: Homo sapiens, read-out: LC50 (the source's name)
[15] = Plasma stability in mouse relative to control; assay type: ADME, cell-free
[16] = Plasma stability in monkey relative to control; assay type: ADME, cell-free, Macaca mulatta; conditions: rhesus monkey
[17] = Plasma stability in human relative to control; assay type: ADME, cell-free
U-251 [18] = test: Cytotoxicity against human U-251MG cells assessed as cell viability; assay type: functional, cell-based
T98G [19] = test: Cytotoxicity against human T98G cells assessed as cell viability; assay type: functional, cell-based
[20] = Cytotoxicity against human U-87G cells assessed as cell viability; assay type: functional, cell-based; conditions: U87G
[21] = Antiproliferative activity against human U-87 MG cells incubated for 72 hrs by MTT assay; assay type: functional, cell-based, U-87MG ATCC
[22] = Cytotoxicity against patient derived xenografted D456 cells; assay type: functional, cell-based; conditions: Homo sapiens
Astrocyte = test: Cytotoxicity against NHA cells; assay type: functional, cell-based; conditions: Homo sapiens
LN-229 = test: Cytotoxicity against human LN-229 cells assessed as cell viability measured after 48 hrs by countess-II FL Hemocytometer method; assay type: functional, cell-based; conditions: LN-229, 48 h
SNB-19 = test: Cytotoxicity against human SNB-19 cells assessed as cell viability measured after 48 hrs by countess-II FL Hemocytometer method; assay type: functional, cell-based; conditions: SNB-19, 48 h
[23] = Cytotoxicity against U87MG Human EGFR vIII cells; assay type: functional, cell-based
U-251 [24] = test: Cytotoxicity against human U-251 cells; assay type: functional, cell-based
[25] = Cytotoxicity against human 091214 cells assessed cell growth inhibition incubated for 48 hrs by CCK8 assay; assay type: functional, cell-based; conditions: Homo sapiens, 091214, 48 h
U-251 [26] = test: Cytotoxicity against human U-251 cells assessed cell growth inhibition incubated for 48 hrs by CCK8 assay; assay type: functional, cell-based; conditions: U-251, 48 h
Translocator protein = Translocator protein (Homo sapiens, UniProt P30536); test: Binding affinity to TSPO (unknown origin)
Translocator protein, sequence (P30536 whole entry): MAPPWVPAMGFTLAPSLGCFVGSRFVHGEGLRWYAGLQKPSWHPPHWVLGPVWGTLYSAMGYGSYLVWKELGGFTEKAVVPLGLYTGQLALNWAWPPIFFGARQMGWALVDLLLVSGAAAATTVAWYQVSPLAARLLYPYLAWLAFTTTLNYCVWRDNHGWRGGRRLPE

[27] = Cytotoxicity against human U-87 MG cells; assay type: functional, cell-based, U-87MG ATCC
DBTRG-05MG = test: Cytotoxicity against human DBTRG cells; assay type: functional, cell-based

Compound `COC(=O)/C=C/c1ccc(/C=C/c2ccc(O)c(O)c2)cc1` has an IC50 (C6) of 5.4 µM and an IC50 [1] of 142 µM.
In the case of `COc1cc(NC(C)CCCNC(=O)CCCC(=O)NO)c2ncccc2c1` (stereo not drawn), the IC50 (U-251 [2]) is reported as 10 µM and the “inhibition (INH)” value (U-251 [3]) is reported as 42%.
`C[C@@H]1C2CCCC3CC[C@]4(C)OO[C@]32[C@H](O[C@@H]1OCCCN=C=S)O4` (stereo partly drawn) gave an IC50 [4] of 7.41 µM.
For `O=C(c1ccccc1)c1[nH]c2[nH]cnc(=O)c2c1-c1ccccc1`, the GI50 (Hs 683) was 0.01 µM and the GI50 [5] was no more than 0.01 µM.
Compound `Cc1ccc(C(C(=O)NO)c2c(-c3ccc4ccccc4c3)[nH]c3ccccc23)cc1C` (stereo not drawn) has a GI50 (T98G [6]) of 7.5 µM and a GI50 (U-87 MG) of 6.7 µM.
For `O=C1Nc2ccc(NC(=O)[C@H](NC(=O)c3cccn(Cc4ccc(F)c(F)c4)c3=O)c3ccccc3)cc2/C1=C/c1cnc[nH]1`, the IC50 [7] was 0.0497 µM and the IC50 [8] was 0.044 µM.
Compound `CCOC(=O)[C@H](CCC(=O)C=[N+]=N)NC(=O)OC(C)OC(=O)C(C)(C)C` (stereo partly drawn) has a solubility [9] greater than 25 mg/mL.
For `CCOC(=O)/C=C/c1ccc(/C=C/c2ccc(O)c(O)c2)cc1`, the IC50 (C6) was 3.9 µM and the IC50 [1] was 86 µM.
Compound `CCn1c(-c2nonc2N)nc2cncc(CNC3CCNCC3)c21` has a CC50 [10] of 115 µM, a CC50 [11] of 456 µM and an inhibition at 10 µM [12] of 60.4%. The inhibition at 10 µM [13] was 37.8% and the CC50 [14] was 112 µM.
`CCOC(=O)[C@H](CCC(=O)C=[N+]=[N-])NC(=O)[C@@H](N)Cc1c[nH]c2ccccc12` gave a Stability [15] of 0%, a Stability [16] of 4% and a Stability [17] of 12%.
For `C[C@H]1O[C@@H](O[C@H]2CC[C@]3(C=O)[C@H]4CC[C@]5(C)[C@@H](C6CCC(=O)OC6)CC[C@]5(O)[C@@H]4CC[C@]3(O)C2)[C@H](O)[C@@H](O)[C@@H]1O` (stereo partly drawn), the IC50 (U-251 [18]) was 70 µM, the IC50 (T98G [19]) was 50 µM and the IC50 [20] was 40 µM.
With `O=C(NO)c1ccc(Cn2c(=O)n(CCc3ccccc3)c(=O)c3ccccc32)cc1` the IC50 [21] was 1.56 µM.
Compound `O=C(Nc1ccc(Cl)c(C(F)(F)F)c1)c1ccc(Cl)cc1` has an IC50 [22] of 2.96 µM and an IC50 (Astrocyte) of 14.2 µM.
Compound `CC(C)(C)[Si](O[C@H]1[C@H](O)C[C@](O)(CO)C[C@H]1O[Si](c1ccccc1)(c1ccccc1)C(C)(C)C)(c1ccccc1)c1ccccc1` has an IC50 (LN-229) of 10.7 µM and an IC50 (SNB-19) of 28.2 µM.
`O=C(COc1ccc2c(=O)c(-c3ccccc3)coc2c1)N=c1[nH]c2ccccc2[nH]1` showed an IC50 [22] of 6.58 µM and an IC50 (Astrocyte) of 4.77 µM.
Compound `CC(C)(C)OC(=O)N1CC[C@@]2(C(=O)Nc3ccccc32)[C@@H]1c1cccc(Nc2ccc(CO)c(S(C)(=O)=O)c2)c1` has an IC50 [23] of 1.78 µM and an IC50 (U-251 [24]) of 2.23 µM.
Work on `C[C@@H]1O[C@@H](O[C@H]2CC[C@H](O[C@H]3[C@H](O)C[C@H](c4ccc5c(c4O)C(=O)c4ccc(C[C@](C)(CC(=O)O)O[C@H]6CC[C@H](O[C@H]7CCC(=O)[C@H](C)O7)[C@H](C)O6)c(O)c4C5=O)O[C@@H]3C)O[C@H]2C)CCC1=O` [GRINCAMYCIN B] yielded an IC50 [25] of 3.11 µM and an IC50 (U-251 [26]) of 2.04 µM.
In the case of `O=C1Nc2ccccc2C12CCN[C@@H]2c1ccccc1` (stereo partly drawn), the IC50 [22] is reported as 41.1 µM and the IC50 (Astrocyte) is reported as 101 µM.
For `O=C(NO)C(c1ccccc1)c1c(-c2ccc3ccccc3c2)[nH]c2ccccc12` (stereo not drawn), the GI50 (T98G [6]) was 1.9 µM and the GI50 (U-87 MG) was 21.3 µM.
In the case of `Cc1ccc(CN(C)C(=O)c2nc(-c3ccccc3Cl)c3ccccc3n2)cc1`, the Ki (Translocator protein) is reported as 0.00399 µM.
`NC(=O)CC(c1ccc(NC(=O)c2cccnc2)cc1)c1cccc2[nH]ccc12` (stereo not drawn) showed an IC50 [22] of 8.65 µM and an IC50 (Astrocyte) of 27.3 µM.
`O=C1c2cc(-c3cccnc3)ncc2C(=O)c2c1c(-c1ccccn1)nn2-c1ccc(F)cc1F` gave an IC50 [27] of 2.5 µM, an IC50 (DBTRG-05MG) of 2.5 µM and an IC50 (U-251 [24]) of 2.5 µM.
Compound `O=C1CC(c2ccc(-c3cc[nH]n3)s2)c2cc(N3CCNC3=O)ccc2N1` (stereo not drawn) has an IC50 [22] of 1.59 µM and an IC50 (Astrocyte) of 4.11 µM.
Work on `O=C1Nc2ccccc2C1Cc1ccc2cc[nH]c2c1` (stereo not drawn) yielded an IC50 [22] of 21.3 µM and an IC50 (Astrocyte) of 24.7 µM.
Work on `CC(C)OC(=O)[C@H](CCC(=O)C=[N+]=[N-])NC(=O)[C@@H](N)Cc1c[nH]c2ccccc12` yielded a Stability [15] of 0%, a Stability [16] of 10% and a Stability [17] of 61%.
